Experimental data published in US6897209B2, “Labelled factor XIIIa substrates” (GE Healthcare Limited, priority 1997, dated 2005).

Legend:
[1] = test system: clots induced in rat inferior vena cava; assay: Incorporation into clots induced in a rat model (rat inferior vena cava model); format: in vivo; details: rat IVC model
Experimental: The rats (Male Wistar, 250-350 g) were anaesthetised with 15% urethane. After laparotomy, the vena cava was isolated and freed of surrounding fat tissue. […] The average weight of the clots formed in this model was around 27 mg, n=32, (5-50 mg range). The so compounds were injected 5 min post-induction. After 60 min the animals were sacrificed and the clot removed, weighed and counted. Other tissues e.g. blood, lung, heart, were also dissected and counted. The uptake of tracer into the clot was determined as the relative concentration (cpm/g of clot by dose/g animal ) and clot to background tissue.

[2] = test system: human plasma clots; assay: Incorporation into human plasma clots (in vitro plasma clot assay); format: biochemical; details: control vials without thrombin and calcium chloride, 60 minutes
Experimental: (§1) Incorporation of radiolabelled substrates into fibrin was investigated by induction of an in vitro human plasma clot in the following manner. To a siliconised 5 ml glass vial was added, (a) 800 μl of Tris(hydroxymethyl)aminomethane buffered saline pH 7.5 containing calcium chloride (50 mM Tris, 150 mM sodium chloride, 4 mM calcium chloride.), (b) 40 μl of physiological salt solution containing 100 units of thrombin per ml, (c) 400 μl of human plasma containing the radiolabelled substrate at a concentration of typically 10 kBq/ml. To aid induction of clot a roughened glass rod was added to the reaction vial. Control vials were prepared similarly but with the omission of thrombin and calcium chloride.
(§2) The proportion of total radioactivity was calculated by counting in suitable detection apparatus.
(§3) The fraction of radioactivity retained on the filter, after subtraction of the non-specific binding determined from the control, is a measure of incorporation into the filtered clots.

[3] = target: T1, human plasma clots (Homo sapiens, UniProt P00488); assay: as above; format: biochemical
T1 construct: Factor XIII is transformed into its active form Factor XIIIa by thrombin in the presence of calcium ions; from tissue; host or cells: human plasma, clotted in vitro with thrombin and calcium chloride
T1 sequence (P00488 39-732): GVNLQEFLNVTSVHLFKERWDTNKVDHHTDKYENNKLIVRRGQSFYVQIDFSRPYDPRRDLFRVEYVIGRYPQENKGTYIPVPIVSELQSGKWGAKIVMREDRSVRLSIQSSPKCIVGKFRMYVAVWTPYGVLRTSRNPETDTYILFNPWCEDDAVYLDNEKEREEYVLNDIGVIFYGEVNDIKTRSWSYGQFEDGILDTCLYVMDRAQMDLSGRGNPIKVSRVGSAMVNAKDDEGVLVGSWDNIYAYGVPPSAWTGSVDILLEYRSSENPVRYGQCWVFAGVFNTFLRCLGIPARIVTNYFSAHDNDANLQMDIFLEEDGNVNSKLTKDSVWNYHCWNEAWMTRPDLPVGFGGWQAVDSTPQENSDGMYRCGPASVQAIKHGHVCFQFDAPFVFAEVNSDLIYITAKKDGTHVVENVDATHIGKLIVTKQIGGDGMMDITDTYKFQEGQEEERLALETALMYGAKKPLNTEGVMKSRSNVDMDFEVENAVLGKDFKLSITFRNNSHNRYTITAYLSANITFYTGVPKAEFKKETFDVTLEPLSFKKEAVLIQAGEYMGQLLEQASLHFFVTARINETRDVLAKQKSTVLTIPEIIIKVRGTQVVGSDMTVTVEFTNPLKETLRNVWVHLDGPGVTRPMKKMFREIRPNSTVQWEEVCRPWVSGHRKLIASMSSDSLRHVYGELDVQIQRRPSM
Experimental: as §1, §2, §3

[4] = Normal rat biodistribution; format: in vivo; details: i.v., male Wistar rats, Mean±SD n=3
Experimental: The resolution of a clot image is dependant on the combination of rate of incorporation of the radiopharmaceutical and its blood/tissues clearance rate. For this reason the biodistribution of several compounds has been determined in rats. Male Wistar (100-150 g) rats were injected i.v. with 0.1-0.2 ml of radiolabelled tracer solution (8 MBq/ml) and dissected at different times post-injection. The % ID in each of the selected tissues was measured. Some animals were kept in metabolism cages to be able to determine the % ID excreted in urine and faeces. The dissection times used for the majority of the agents was 2, 15, 30, 60, 240 min. Data are shown as % ID, Mean±SD, (n=3).

[5] = target: T2, Factor XIIIa (Homo sapiens, UniProt P00488); assay: Factor XIIIa dependency of incorporation (dimethylcasein uptake, normal vs Factor XIII deficient plasma); format: biochemical; details: 1 KBq/ml, 60 minutes; uptake in normal plasma minus Factor XIII deficient plasma
T2 construct: Factor XIII is transformed into its active form Factor XIIIa by thrombin in the presence of calcium ions; from tissue; host or cells: human plasma
T2 sequence (P00488 39-732 limits assumed): T1 sequence (P00488 39-732)
Experimental: The assay was changed by replacing the mercaptoethanol with aprotinin at a final concentration of 2 μg/ml, and dimethylcasein (DMC) was used instead of casein.

[6] = compound injected 5 min post-induction, clot removed after 60 min

- % specific uptake* ([3]; % retained with thrombin − % retained no thrombin): 2.6%
- % retained in plasma clot assay (with thrombin) ([3]; human plasma with thrombin and calcium chloride, 60 minutes, ca. 20° C.): 3%
- % ID Blood ([4]; 2 min post-injection): 10.33 ± 1.2 % ID
- % ID GI Tract ([4]; 2 min post-injection): 13.6 ± 0.8 % ID
- % ID Heart ([4]; 2 min post-injection): 0.33 + 0.06 % ID
- % ID Kidney ([4]; 2 min post-injection): 8.34 ± 2.7 % ID
- % ID Liver ([4]; 2 min post-injection): 19.9 ± 0.87 % ID
- % ID Lung ([4]; 2 min post-injection): 1.08 ± 0.15 % ID
- % ID Muscle ([4]; 2 min post-injection): 22.6 ± 0.8 % ID
- % ID Urine ([4]; 2 min post-injection): 2.44 ± 1.68 % ID
- % ID Blood ([4]; 30 min post-injection): 0.98 ± 0.18 % ID
- % ID GI Tract ([4]; 30 min post-injection): 62.7 ± 2.7 % ID
- % ID Heart ([4]; 30 min post-injection): 0.04 + 0.02 % ID
- % ID Kidney ([4]; 30 min post-injection): 2.39 ± 0.81 % ID
- % ID Liver ([4]; 30 min post-injection): 5.06 ± 0.89 % ID
- % ID Lung ([4]; 30 min post-injection): 0.16 % ID
- % ID Muscle ([4]; 30 min post-injection): 5.27 ± 0.4 % ID
- % ID Urine ([4]; 30 min post-injection): 19.49 ± 1.96 % ID
- % ID Blood ([4]; 60 min post-injection): 0.43 ± 0.07 % ID
- % ID GI Tract ([4]; 60 min post-injection): 68.6 ± 0.4 % ID
- % ID Heart ([4]; 60 min post-injection): 0.02 + 0.02 % ID
- % ID Kidney ([4]; 60 min post-injection): 1.49 ± 0.04 % ID
- % ID Liver ([4]; 60 min post-injection): 5.3 ± 0.9 % ID
- % ID Lung ([4]; 60 min post-injection): 0.1 ± 0.04 % ID
- % ID Muscle ([4]; 60 min post-injection): 2.26 ± 0.05 % ID
- % ID Urine ([4]; 60 min post-injection): 18.81 ± 0.85 % ID
- % ID Blood ([4]; 240 min post-injection): 0.21 ± 0.08 % ID
- % ID GI Tract ([4]; 240 min post-injection): 70.1 ± 1.9 % ID
- % ID Heart ([4]; 240 min post-injection): 0.01 + 0.04 % ID
- % ID Kidney ([4]; 240 min post-injection): 1.51 ± 0.02 % ID
- % ID Liver ([4]; 240 min post-injection): 3.81 ± 0.92 % ID
- % ID Lung ([4]; 240 min post-injection): 0.06 ± 0.01 % ID
- % ID Muscle ([4]; 240 min post-injection): 1.94 ± 0.35 % ID
- % ID Urine ([4]; 240 min post-injection): 19.88 ± 3.03 % ID
- % specific DMC casein uptake [5]: 2%
SMILES: CC(=NO)C(C)(C)NCC(C)(CNC(=O)CCCCCN)CNC(C)(C)C(C)=NO (stereo not drawn) [Compound 4, 3,3,6,9,9-pentamethyl-6-N-(6aminohexoyl)aminomethyl-4,8-diazaundecane-2,10-dione dioxime]
- Clot/Blood ([1]; 60 min): 2.3
- Clot/Heart ([1]; 60 min): 4.0
- Clot/Liver ([1]; 60 min): 0.27
- Clot/Lung ([1]; 60 min): 2.7
- % ID/g (clot uptake) [1, 6]: 0.18 ± 0.06 % ID/g
- Relative conc (cpm/g of clot by dose/g animal) [1, 6]: 0.52 ± 0.2
- % retained in plasma clot assay (no thrombin) [2]: 0.4%
